Experiments:
Type in all cases: biochemical
[1] = target: T1, Steely2 C-terminal type III PKS domain (Dictyostelium discoideum, UniProt Q54FI3); assay: In vitro polyketide extension assay with [14-C]malonyl-CoA and CoA-linked starters, TLC/autoradiography; conditions: heterologously expressed domain, radiolabeled malonyl-CoA extender
T1 construct: poly-histidine (pHIS-8 vector, thrombin-cleavable) (N); made in house; host or cells: E. coli BL21(DE3) or CodonPlus (Stratagene)
T1 sequence (Q54FI3 2595-2968): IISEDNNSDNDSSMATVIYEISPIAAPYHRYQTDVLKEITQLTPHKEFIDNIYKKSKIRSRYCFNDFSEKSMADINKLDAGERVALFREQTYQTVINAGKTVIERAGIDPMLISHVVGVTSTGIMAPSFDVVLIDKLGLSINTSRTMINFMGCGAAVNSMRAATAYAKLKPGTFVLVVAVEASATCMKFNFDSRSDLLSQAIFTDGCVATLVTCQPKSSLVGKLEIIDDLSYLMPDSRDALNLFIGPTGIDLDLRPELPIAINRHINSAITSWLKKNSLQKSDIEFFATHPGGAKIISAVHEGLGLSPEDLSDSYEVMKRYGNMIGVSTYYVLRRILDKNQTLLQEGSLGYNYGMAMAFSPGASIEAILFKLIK
Method: (§1) These differences in in vitro starter specificity are consistent with the substantial divergence of these steely active site predicted by homology modeling.
(§2) Standard 100 μL in vitro assays of heterologously expressed Steely C-terminal domains using [14-C]malonyl-CoA and various CoA-linked starters were conducted, extracted with ethyl acetate, analyzed by reverse-phase TLC, and visualized by autoradiography as previously reported.

[2] = target: T2, Steely1 C-terminal type III PKS domain (Dictyostelium discoideum, UniProt Q55E72); assay: as above; conditions: heterologously expressed domain, radiolabeled malonyl-CoA extender
T2 construct: poly-histidine (pHIS-8 vector, thrombin-cleavable) (N); made in house; host or cells: E. coli BL21(DE3) or CodonPlus (Stratagene)
T2 sequence (Q55E72 2776-3147): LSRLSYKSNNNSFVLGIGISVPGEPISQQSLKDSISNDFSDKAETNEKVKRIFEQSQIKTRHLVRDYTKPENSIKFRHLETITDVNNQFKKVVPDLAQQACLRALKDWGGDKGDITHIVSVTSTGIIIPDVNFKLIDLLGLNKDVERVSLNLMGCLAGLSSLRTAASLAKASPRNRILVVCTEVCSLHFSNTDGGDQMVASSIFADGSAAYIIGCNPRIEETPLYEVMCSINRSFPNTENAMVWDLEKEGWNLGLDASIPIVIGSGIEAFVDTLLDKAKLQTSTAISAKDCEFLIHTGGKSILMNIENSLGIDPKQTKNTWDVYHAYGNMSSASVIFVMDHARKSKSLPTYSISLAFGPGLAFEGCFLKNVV
Method: as §1, §2

[3] = target: T3, Steely1 type III PKS domain (Dictyostelium discoideum, UniProt Q55E72); assay: HPLC-MS-MS analysis of in vitro assays with unlabeled malonyl-CoA; conditions: overnight, Bis-Tris Propane pH 7.0
T3 construct: poly-histidine (pHIS-8 vector, thrombin-cleavable) (N); made in house; host or cells: E. coli BL21(DE3) or CodonPlus (Stratagene)
T3 sequence (Q55E72 2776-3147): T2 sequence (Q55E72 2776-3147)
Method: (§3) The related D. discoideum DIF-2 acylphloroglucinol scaffold seems to be derived from a pentanoyl intermediate. Therefore, in vitro assays of each steely C-terminal domain were also primed with butanoyl-CoA (12), as pentanoyl-CoA is not commercially available.
(§4) For HPLC-MS-MS analyses 25 μl injections of similarly prepared overnight reactions (but without organic extraction) buffered with 100 mM Bis-Tris Propane (pH 7.0), using unlabeled malonyl-CoA, were used. LC-MS-MS analyses were carried out on an Agilent 1100 HPLC with an integrated Agilent LC/MSD Trap XCT ion trap mass spectrometer, using a reversed-phase C18 column (4.6×150 mm; Gemini) maintained at 30° C. A gradient mobile phase ramped from 5% to 100% acetonitrile in water (with each solvent containing 0.1% v/v formic acid) between minutes 3 and 13 of a 25-min run using a flow rate of 0.5 ml min^−1 and a 0.1 ml min^−1 post column injection of 20 mM ammonium acetate in water. UV absorbance was monitored at 286 nm.
(§5) PCP was identified by direct HPLC-MS-MS comparison with an authentic synthetic standard, kindly provided by S. Horinouchi and N. Funa. Other hexanoyl- and butanoyl-primed enzymatic products were identified by comparing their relative HPLC elution times and negative MS-MS fragmentation patterns with previously published LC-MS-MS analyses of authentic standards (Funa et al. (2002) “Properties and substrate specificity of RppA, a chalcone synthase-related polyketide synthase in Streptomyces griseus” J Biol Chem 277:4628-4635). EICs with parent ion masses of plausible polyketide products were used to detect trace amounts of minor enzymatic products, but only triketide and tetraketide products were observed.

[4] = target: T4, Steely2 type III PKS domain (Dictyostelium discoideum, UniProt Q54FI3); assay: as above; conditions: overnight, Bis-Tris Propane pH 7.0
T4 construct: poly-histidine (pHIS-8 vector, thrombin-cleavable) (N); made in house; host or cells: E. coli BL21(DE3) or CodonPlus (Stratagene)
T4 sequence (Q54FI3 2595-2968): T1 sequence (Q54FI3 2595-2968)
Method: as §3, §4, §5

Row | SMILES | polyketide extension activity with the substance as starter [1] | polyketide extension activity with the substance as starter [2] | enzymatic products of starter-primed assay [3] | enzymatic products of starter-primed assay [4]
1 | CC(C)(COP(=O)(O)OP(=O)(O)OC[C@H]1O[C@@H](n2cnc3c(N)ncnc32)[C@H](O)[C@@H]1OP(=O)(O)O)[C@@H](O)C(=O)NCCC(=O)NCCSC(=O)/C=C/c1ccc(O)cc1 [p-coumaroyl-CoA] | Neither enzyme showed significant polyketide extension activity | Neither enzyme showed significant polyketide extension activity | – | –
2 | CC(C)(COP(=O)(O)OP(=O)(O)OC[C@H]1O[C@@H](n2cnc3c(N)ncnc32)[C@H](O)[C@@H]1OP(=O)(O)O)[C@@H](O)C(=O)NCCC(=O)NCCSC(=O)CC(=O)O [malonyl-CoA] | Neither enzyme showed significant polyketide extension activity | Neither enzyme showed significant polyketide extension activity | – | –
3 | CCCCCCCC(=O)SCCNC(=O)CCNC(=O)[C@H](O)C(C)(C)COP(=O)(O)OP(=O)(O)OC[C@H]1O[C@@H](n2cnc3c(N)ncnc32)[C@H](O)[C@@H]1OP(=O)(O)O [octanoyl-CoA] | only Steely1 accepted | accepted | – | –
4 | CCCCCC(=O)SCCNC(=O)CCNC(=O)[C@H](O)C(C)(C)COP(=O)(O)OP(=O)(O)OC[C@H]1O[C@@H](n2cnc3c(N)ncnc32)[C@H](O)[C@@H]1OP(=O)(O)O [hexanoyl-CoA] | catalyze iterative polyketide extension | catalyze iterative polyketide extension | produced only triketide (10) and tetraketide (11) lactonization-derived pyrones | catalyzes three rounds of polyketide chain extension and the final CHS-like intramolecular C6 to C1 Claisen condensation
5 | CCCC(=O)SCCNC(=O)CCNC(=O)[C@H](O)C(C)(C)COP(=O)(O)OP(=O)(O)OC[C@H]1O[C@@H](n2cnc3c(N)ncnc32)[C@H](O)[C@@H]1OP(=O)(O)O [butanoyl-CoA] | – | – | no effect on the cyclization fate | no effect on the cyclization fate
6 | CC(=O)SCCNC(=O)CCNC(=O)[C@H](O)C(C)(C)COP(=O)(O)OP(=O)(O)OC[C@H]1O[C@@H](n2cnc3c(N)ncnc32)[C@H](O)[C@@H]1OP(=O)(O)O [acetyl-CoA] | Neither enzyme showed significant polyketide extension activity | Neither enzyme showed significant polyketide extension activity | – | –
7 | CC(C)CC(=O)SCCNC(=O)CCNC(=O)[C@H](O)C(C)(C)COP(=O)(O)OP(=O)(O)OC[C@H]1O[C@@H](n2cnc3c(N)ncnc32)[C@H](O)[C@@H]1OP(=O)(O)O [isovaleryl-CoA] | would accept | not Steely1 would accept | – | –
